This is an account of results in patent US6207669A, “Bicyclic heteroaromatic compounds as protein tyrosine kinase inhibitors” (Glaxo Wellcome Inc., priority 1996, dated 2001).

Experiment [1] concerns HB4a cell line transformed by over-expression of c-erbB-2. The experiment in a line: Cell proliferation assay, HB4a erbB-2. It counts as cell-based. The note with it: Homo sapiens, 96 h, 4 days, methylene blue staining. Here is the method:
(§1) The cell proliferation assay uses an immortalised human breast epithelial cell line (HB4a) which has been transformed by over-expression of c-erbB-2. Growth of these cells in low serum is dependent upon the c-erbB-2 tyrosine kinase activity. […] Cells are plated at 3000/well in 96-well plates in […] medium and allowed to attach overnight. test compound is added in 0.1 ml medium, with a final concentration of 0.5% DMSO, and the plates incubated for 4 days at 37° C. The cells are then examined microscopically for evidence of morphological detransformation and cell mass is estimated by staining with methylene blue and measuring the absorbance at 620 nm. […] Activity against a range of naturally occurring EGFr or c-erbB-2 over-expressing human tumour cell lines (BT474-breast, HN5-head and neck, N87 gastric and Calu3-lung) is assessed with selected compounds by the same methodology.

In experiment [2] the target is T1, EGFr isolated from solubilised A431 cell membranes (Homo sapiens, UniProt P00533).
T1 construct: EGFr isolated from solubilised A431 cell membranes; endogenous in cells; host or cells: A431 cells (solubilised membranes)
T1 sequence (P00533 25-1210): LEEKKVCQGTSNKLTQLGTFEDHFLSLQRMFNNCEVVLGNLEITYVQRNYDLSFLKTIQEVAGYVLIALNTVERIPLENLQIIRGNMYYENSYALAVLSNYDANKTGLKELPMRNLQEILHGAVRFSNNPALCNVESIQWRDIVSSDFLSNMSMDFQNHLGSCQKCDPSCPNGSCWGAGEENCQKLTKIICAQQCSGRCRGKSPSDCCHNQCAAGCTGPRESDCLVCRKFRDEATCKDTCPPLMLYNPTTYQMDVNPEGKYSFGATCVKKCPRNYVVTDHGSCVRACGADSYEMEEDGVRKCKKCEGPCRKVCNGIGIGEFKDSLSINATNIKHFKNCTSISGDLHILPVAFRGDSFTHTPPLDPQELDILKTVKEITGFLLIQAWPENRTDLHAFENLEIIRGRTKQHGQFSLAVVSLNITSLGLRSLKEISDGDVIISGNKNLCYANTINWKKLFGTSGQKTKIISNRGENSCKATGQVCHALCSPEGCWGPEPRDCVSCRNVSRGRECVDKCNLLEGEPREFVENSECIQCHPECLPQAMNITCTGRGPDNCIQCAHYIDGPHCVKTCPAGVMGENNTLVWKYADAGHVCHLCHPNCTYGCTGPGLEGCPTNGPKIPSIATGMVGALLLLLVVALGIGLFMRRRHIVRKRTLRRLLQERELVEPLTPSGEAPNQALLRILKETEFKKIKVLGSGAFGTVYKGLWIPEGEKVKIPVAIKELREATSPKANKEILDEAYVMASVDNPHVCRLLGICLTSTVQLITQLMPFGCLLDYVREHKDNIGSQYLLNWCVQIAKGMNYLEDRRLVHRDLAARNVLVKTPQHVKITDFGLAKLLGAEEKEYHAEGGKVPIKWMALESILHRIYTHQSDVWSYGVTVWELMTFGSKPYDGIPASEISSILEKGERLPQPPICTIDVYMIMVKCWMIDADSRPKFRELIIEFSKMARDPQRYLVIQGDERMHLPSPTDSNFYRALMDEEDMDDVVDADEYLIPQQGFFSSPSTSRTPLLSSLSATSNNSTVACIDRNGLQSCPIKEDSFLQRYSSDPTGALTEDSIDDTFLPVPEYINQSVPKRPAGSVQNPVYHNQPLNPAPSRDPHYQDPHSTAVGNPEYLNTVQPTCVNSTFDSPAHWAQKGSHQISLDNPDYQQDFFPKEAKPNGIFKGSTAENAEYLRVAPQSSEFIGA
The experiment in a line: Substrate phosphorylation assay, EGFr. The experiment is classed as biochemical. Particulars: 30 minutes, room temperature, ATP and peptide at Km. Here is the method:
(§2) The substrate phosphorylation assays use baculovirus expressed, recombinant constructs of the intracellular domains of c-erbB-2 and c-erbB4 that are constitutively active and EGFr isolated from solubilised A431 cell membranes. The method measures the ability of the isolated enzymes to catalyse the transfer of the γ-phosphate from ATP onto tyrosine residues in a biotinylated synthetic peptide (Biotin-GluGluGluGluTyrPheGluLeuVal). The enzyme is incubated for 30 minutes, at room temperature, with 10 mM […], ATP and peptide at Km concentrations, and test compound (diluted from a 5 mM stock in DMSO, final DMSO concentration is 2%) in 40 mM HEPES buffer, pH 7.4. The reaction is stopped by the addition of EDTA (final concentration 0.15 mM) and a sample is transferred to a streptavidin-coated 96-well plate. The plate is washed and the level of phosphotyrosine on the peptide is determined using a Europium-labelled antiphosphotyrosine antibody and quantified with a time-resolved fluorescence technique. The results are shown in Table 1 as the IC50 values in nM.

Experiment [3] relates to HN5-head and neck tumour cell line. The experiment in a line: Cell proliferation assay, HN5. Particulars: Homo sapiens, 96 h, read-out: Cell Proliferation HN5 IC50. The experiment is classed as cell-based. As for the experimental part:
as §1

Experiment [4] has as its target T2, c-erbB-2 (baculovirus expressed, recombinant intracellular domain) (Homo sapiens, UniProt P04626).
T2 construct: recombinant constructs of the intracellular domains of c-erbB-2 and c-erbB4 that are constitutively active; made in house
The experiment in a line: Substrate phosphorylation assay, c-erbB-2. Particulars: 30 minutes, room temperature, ATP and peptide at Km. The experiment is classed as biochemical. As for the experimental part:
The substrate phosphorylation assays use baculovirus expressed, recombinant constructs of the intracellular domains of c-erbB-2 and c-erbB4 that are constitutively active and EGFr isolated from solubilised A431 cell membranes. […] The reaction is stopped by the addition of EDTA (final concentration 0.15 mM) and a sample is transferred to a streptavidin-coated 96-well plate. The plate is washed and the level of phosphotyrosine on the peptide is determined using a Europium-labelled antiphosphotyrosine antibody and quantified with a time-resolved fluorescence technique. The results are shown in Table 1 as the IC50 values in nM.

Experiment [5] addresses T3, c-erbB4 (baculovirus expressed, recombinant intracellular domain) (Homo sapiens, UniProt Q15303).
T3 construct: recombinant constructs of the intracellular domains of c-erbB-2 and c-erbB4 that are constitutively active; made in house
The experiment in a line: Substrate phosphorylation assay, c-erbB4. The note with it: 30 minutes, room temperature, ATP and peptide at Km; read-out: Substrate Phosphorylation erbB-4 IC50. It counts as biochemical. Here is the method:
as §2

The test system of experiment [6] is Calu3-lung tumour cell line. The experiment in a line: Cell proliferation assay, Calu3. Particulars: Homo sapiens, Calu-3, 96 h; 4 days, methylene blue staining. It counts as cell-based. As for the experimental part:
as §1

Experiment [7] concerns BT474-breast tumour cell line. The experiment in a line: Cell proliferation assay, BT474. It counts as cell-based. The note with it: Homo sapiens, BT-474, 96 h; 4 days, methylene blue staining. Here is the method: as §1
Experiment [8] deals with HB4a cell line transfected with ras. The experiment in a line: Cell proliferation assay, HB4a ras. It counts as cell-based. Particulars: Homo sapiens, 96 h, 4 days, methylene blue staining, general toxicity comparison.
The subject of experiment [9] is N87 gastric tumour cell line. The experiment in a line: Cell proliferation assay, N87. It counts as cell-based. The note with it: Homo sapiens, 96 h; 4 days, methylene blue staining. Here is the method: as §1

T2 sequence (P04626 676-1255 limits assumed): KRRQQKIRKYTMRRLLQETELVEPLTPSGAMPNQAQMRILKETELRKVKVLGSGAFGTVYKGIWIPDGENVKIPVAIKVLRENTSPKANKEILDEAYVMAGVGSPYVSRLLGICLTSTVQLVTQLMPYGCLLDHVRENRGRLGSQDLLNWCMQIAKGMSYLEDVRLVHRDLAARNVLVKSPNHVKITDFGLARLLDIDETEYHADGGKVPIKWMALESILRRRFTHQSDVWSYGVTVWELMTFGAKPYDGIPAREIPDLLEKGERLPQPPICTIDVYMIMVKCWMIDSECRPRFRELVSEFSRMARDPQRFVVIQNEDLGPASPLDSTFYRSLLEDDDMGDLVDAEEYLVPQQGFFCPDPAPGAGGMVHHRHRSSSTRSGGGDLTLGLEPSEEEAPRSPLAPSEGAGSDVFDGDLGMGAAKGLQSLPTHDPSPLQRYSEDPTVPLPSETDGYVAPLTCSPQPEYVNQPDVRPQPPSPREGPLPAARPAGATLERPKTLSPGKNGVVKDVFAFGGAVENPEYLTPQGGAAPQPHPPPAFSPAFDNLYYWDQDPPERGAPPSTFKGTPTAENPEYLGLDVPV
T3 sequence (Q15303 676-1308 limits assumed): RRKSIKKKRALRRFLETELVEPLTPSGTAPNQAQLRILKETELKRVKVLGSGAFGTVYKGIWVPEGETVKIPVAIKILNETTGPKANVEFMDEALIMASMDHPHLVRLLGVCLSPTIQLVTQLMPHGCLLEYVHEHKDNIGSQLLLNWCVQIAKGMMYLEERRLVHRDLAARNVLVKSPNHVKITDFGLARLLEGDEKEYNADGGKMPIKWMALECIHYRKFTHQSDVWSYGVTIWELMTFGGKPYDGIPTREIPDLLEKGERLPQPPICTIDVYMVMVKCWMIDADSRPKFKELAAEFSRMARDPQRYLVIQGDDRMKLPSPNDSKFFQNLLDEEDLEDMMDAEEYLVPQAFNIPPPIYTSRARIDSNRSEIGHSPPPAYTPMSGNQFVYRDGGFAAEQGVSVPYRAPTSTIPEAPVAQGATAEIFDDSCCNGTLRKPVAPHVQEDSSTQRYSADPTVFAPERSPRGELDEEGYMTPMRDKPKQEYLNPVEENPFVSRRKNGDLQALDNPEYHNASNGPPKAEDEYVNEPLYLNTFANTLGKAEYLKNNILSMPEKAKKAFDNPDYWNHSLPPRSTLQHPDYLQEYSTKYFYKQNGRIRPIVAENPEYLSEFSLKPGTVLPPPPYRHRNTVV

Take `CN(CC(N)=O)Cc1ccc(-c2cc3c(Nc4ccc(OCc5ccccc5)cc4)ncnc3cn2)o1` [Example 8, 2-((5-(4-(4-Benzyloxy-phenylamino)-pyrido[3,4-d]pyrimidin-6-yl)-furan-2-ylmethyl)-methylamino)-acetamide]: the IC50 in experiment [1] came to 100 nM; in experiment [2], 720 nM; in [3], 350 nM; in experiment [4] it was 11 nM; in experiment [5] it was 160 nM; in [6], 340 nM. Besides, the IC50 in experiment [7] is 380 nM; in experiment [8] it was 41000 nM; in [9], 60 nM.
